In brackets after ≈: the same amount, converted by molar mass. Square brackets hold non-standard residues; d marks the D form. Peptide text beside a SMILES is read from it. * marks the point of attachment. ξ: configuration not given here. boroAla((+)-pinanediol) = C[C@H](N*)B1O[C@@H]2C[C@@H]3C[C@@H](C3(C)C)[C@]2(C)O1; Biphenylcarbonyl(4'-Bu) = CCCCc1ccc(-c2ccc(C(=O)*)cc2)cc1; X11 = CC[C@H](N*)B1OC2C[C@@H]3C[C@@H](C3(C)C)[C@]2(C)O1; X1 = C[C@H](N*)B1OC2C[C@@H]3C[C@@H](C3(C)C)[C@]2(C)O1; Benzoyl(4-(4-Cl-Ph)) = O=C(c1ccc(-c2ccc(Cl)cc2)cc1)*; X16 = CC(C)(C)c1ccc(-c2ccc(C(=O)*)cc2)cc1; X13 = CCCCN1CCC(c2ccc(C(=O)*)cc2)CC1; NMeE = CN[C@@H](CCC(=O)O)C(=O)O; Thr(3ξ) = CC(O)[C@H](N)C(=O)O; Tle = CC(C)(C)[C@H](N)C(=O)O; boroAla = C[C@H](N*)B(O)O; Orn = NCCC[C@H](N)C(=O)O; Dab = NCC[C@H](N)C(=O)O; Dap = NC[C@H](N)C(=O)O; Ac3c = NC1(C(=O)O)CC1; βAla = NCCC(=O)O
Legend:
[1] = tested on: methicillin resistant Staphylococcus aureus (MRSA) strain USA300 (NRS384); settings: Method B, 35° C., 22 hours
[2] = target: S. aureus SPase (Staphylococcus aureus, UniProt P0A070); assay: biochemical
Sequence of S. aureus SPase (P0A070 whole entry): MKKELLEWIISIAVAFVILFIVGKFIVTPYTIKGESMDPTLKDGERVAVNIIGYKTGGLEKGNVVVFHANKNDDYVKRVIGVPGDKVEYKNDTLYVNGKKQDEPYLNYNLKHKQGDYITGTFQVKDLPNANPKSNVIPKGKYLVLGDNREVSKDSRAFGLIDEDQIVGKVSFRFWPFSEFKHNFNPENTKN

[3] = target: E. coli SPase (Escherichia coli, UniProt P00803); assay: Biochemical SPase activity assay (fluorogenic peptide substrate), E. coli enzyme
Sequence of E. coli SPase (P00803 whole entry): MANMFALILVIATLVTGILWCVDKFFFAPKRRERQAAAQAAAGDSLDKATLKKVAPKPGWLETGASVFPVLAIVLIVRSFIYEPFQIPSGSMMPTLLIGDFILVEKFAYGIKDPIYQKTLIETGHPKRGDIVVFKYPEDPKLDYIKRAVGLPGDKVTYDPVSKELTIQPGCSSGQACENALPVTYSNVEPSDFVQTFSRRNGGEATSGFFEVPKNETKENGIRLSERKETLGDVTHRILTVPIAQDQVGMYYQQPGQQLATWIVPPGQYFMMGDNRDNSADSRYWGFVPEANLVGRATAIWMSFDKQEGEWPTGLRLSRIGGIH

[4] = tested on: Escherichia coli strain MC4100 IMP-4213, which harbors an LptD mutation; settings: Method B; E. coli MC4100 IMP-4213 (LptD mutation); 35° C., 22 hours
Protocol: In vitro antimicrobial activity of each compound was determined by measuring minimal inhibitor concentrations (MICs) using the broth micro-dilution technique as approved by the Clinical and Laboratory Standards Institute (CLSI). […] Bacterial inocula were prepared by scraping cells into 1 mL of testing media (cation adjusted Mueller Hinton Broth supplemented with 0.002% v/v Tween-80) and diluting to a final OD600 nm of 0.01.
Test compounds were prepared in DMSO at a concentration of 10 mg/ml. […] Bacterial inocula were added to the two fold serial dilutions of test compounds to a final density of OD OD600 nm of 0.0005 and incubated stationarily at 35° C. for 22 hours, after which the plates were examined visually.

| Structure (SMILES) | MIC (μg/mL) S. aureus [1] [µg/mL] | IC50 [2] [nM] | IC50 [3] [nM] | MIC (μg/mL) E. coli [4] [µg/mL] |
| --- | --- | --- | --- | --- |
| CCCCc1ccc(-c2ccc(C(=O)N[C@H](CO)C(=O)N[C@H](C)C(=O)NCC(=O)N(C)[C@@H](CCC(=O)O)C(=O)N[C@@H](C)C(=O)N[C@@H](CC(N)=O)C(=O)N[C@@H](C)B3OC4C[C@@H]5C[C@@H](C5(C)C)[C@]4(C)O3)cc2)cc1 (stereo partly shown) [Compound 229] ({Biphenylcarbonyl(4'-Bu)}-[dS][dA]G[NMeE]AN-X1) | 64 (≈ 63.8 µM) | 220 | 290 | 32 (≈ 31.9 µM) |
| CCCCc1ccc(-c2ccc(C(=O)N[C@@H](CCCCN)C(=O)N[C@H](C(=O)N[C@@H](C)C(=O)N[C@@H](CC(N)=O)C(=O)N[C@@H](C)B3O[C@@H]4C[C@@H]5C[C@@H](C5(C)C)[C@]4(C)O3)[C@@H](C)O)cc2)cc1 [Compound 129] ({Biphenylcarbonyl(4'-Bu)}-KTAN-{boroAla((+)-pinanediol)}) | 0.74 (≈ 0.847 µM) | 140 | 14 | 0.91 (≈ 1.04 µM) |
| C[C@H](NC(=O)[C@H](CC(N)=O)NC(=O)[C@H](C)NC(=O)[C@@H](NC(=O)[C@H](CCCCN)NC(=O)CCNC(=O)c1ccc(-c2ccc(Cl)cc2)cc1)[C@@H](C)O)B(O)O [Compound 154] ({Benzoyl(4-(4-Cl-Ph))-βAla}-KTAN-boroAla) | 2.8 (≈ 3.55 µM) | 8.1 | 14 | 32 (≈ 40.6 µM) |
| CCCCc1ccc(-c2ccc(C(=O)N[C@@H](CCCN)C(=O)N[C@H](C(=O)N[C@@H](C)C(=O)N[C@@H](CCCCN)C(=O)N[C@@H](C)B(O)O)C(C)O)cc2)cc1 (stereo partly shown) [Compound 156] ({Biphenylcarbonyl(4'-Bu)}-[Orn][Thr(3ξ)]AK-boroAla) | 0.31 (≈ 0.419 µM) | 97 | 5.5 | 0.5 (≈ 0.676 µM) |
| CCCCc1ccc(-c2ccc(C(=O)N[C@@H](CCN)C(=O)N[C@H](C(=O)N[C@@H](C)C(=O)N[C@@H](CCCCN)C(=O)N[C@@H](C)B3OC4C[C@@H]5C[C@@H](C5(C)C)[C@]4(C)O3)[C@@H](C)O)c(C)c2)cc1 (stereo partly shown) [Compound 241] | 0.25 (≈ 0.286 µM) | 42 | 2.1 | 0.18 (≈ 0.206 µM) |
| CCCCc1ccc(Nc2ccc(C(=O)N[C@@H](CCN)C(=O)N[C@H](C(=O)N[C@@H](C)C(=O)N[C@@H](CCCCN)C(=O)N[C@@H](C)B3OC4C[C@@H]5C[C@@H](C5(C)C)[C@]4(C)O3)[C@@H](C)O)cc2)cc1 (stereo partly shown) [Compound 249] | 0.35 (≈ 0.4 µM) | 160 | 17 | 1 (≈ 1.14 µM) |
| CCCCc1ccc(-c2ccc(C(=O)N[C@@H](CCCCN)C(=O)N[C@@H](CCN)C(=O)N[C@@H](C)C(=O)N[C@@H](CC(C)C)C(=O)N[C@@H](C)B(O)O)cc2)cc1 [Compound 161] ({Biphenylcarbonyl(4'-Bu)}-K[Dab]AL-boroAla) | 0.63 (≈ 0.854 µM) | 300 | 60 | 0.71 (≈ 0.962 µM) |
| CCCCc1ccc(-c2cnc(C(=O)N[C@@H](CCN)C(=O)N[C@H](C(=O)N[C@@H](C)C(=O)N[C@@H](CCCCN)C(=O)N[C@@H](C)B3OC4C[C@@H]5C[C@@H](C5(C)C)[C@]4(C)O3)[C@@H](C)O)nc2)cc1 (stereo partly shown) [Compound 242] | 1.4 (≈ 1.62 µM) | 54 | 21 | 11 (≈ 12.8 µM) |
| CCCCc1ccc(-c2ccc(C(=O)NCCC(=O)N[C@@H](CCCCN)C(=O)N[C@H](C(=O)N[C@@H](C)C(=O)N[C@@H](CC(N)=O)C(=O)N[C@@H](C)B(O)O)[C@@H](C)O)cc2)cc1 [Compound 204] ({Biphenylcarbonyl(4'-Bu)-βAla}-KTAN-boroAla) | 0.45 (≈ 0.555 µM) | 13 | 33 | 4.6 (≈ 5.67 µM) |
| CCCCc1ccc(-c2ccc(C(=O)NCCC(=O)N[C@@H](CCCCN)C(=O)N[C@H](C(=O)N[C@@H](C)C(=O)NC3(C(=O)N[C@@H](C)B4OC5C[C@@H]6C[C@@H](C6(C)C)[C@]5(C)O4)CC3)[C@@H](C)O)cc2)cc1 (stereo partly shown) [Compound 219] ({Biphenylcarbonyl(4'-Bu)-βAla}-KTA[Ac3c]-X1) | 5 (≈ 5.47 µM) | 46 | 560 | 64 (≈ 70 µM) |
| CCCCc1ccc(-c2ccc(C(=O)NCCC(=O)N[C@@H](CCCCN)C(=O)N[C@H](C(=O)N[C@@H](C)C(=O)N[C@@H](CC(N)=O)C(=O)N[C@@H](CC)B3OC4C[C@@H]5C[C@@H](C5(C)C)[C@]4(C)O3)[C@@H](C)O)cc2)cc1 (stereo partly shown) [Compound 203] ({Biphenylcarbonyl(4'-Bu)-βAla}-KTAN-X11) | 1.4 (≈ 1.46 µM) | 21 | 130 | 32 (≈ 33.4 µM) |
| CCCCc1ccc(-c2ccc(C(=O)N[C@H]3CN[C@H](C(=O)N[C@H](C(=O)N[C@@H](C)C(=O)N[C@@H](CCCCN)C(=O)N[C@@H](C)B4OC5C[C@@H]6C[C@@H](C6(C)C)[C@]5(C)O4)[C@@H](C)O)C3)cc2)cc1 (stereo partly shown) [Compound 269] | 0.5 (≈ 0.573 µM) | 340 | 1800 | 8 (≈ 9.18 µM) |
| CCCCc1ccc(-c2ccc(C(=O)N[C@@H](CCCCN)C(=O)NC(C(=O)N[C@@H](C)C(=O)N[C@@H](CCCCN)C(=O)N[C@@H](C)B(O)O)c3ccc(OC)cc3)cc2)cc1 (stereo partly shown) [Compound 166] | 0.63 (≈ 0.772 µM) | 350 | 36 | 0.5 (≈ 0.613 µM) |
| C[C@H](NC(=O)[C@H](CCCCN)NC(=O)[C@H](C)NC(=O)[C@@H](NC(=O)[C@H](CN)NC(=O)c1ccc(-c2ccc(Cl)cc2)cc1)[C@@H](C)O)B(O)O [Compound 175] ({Benzoyl(4-(4-Cl-Ph))}-[Dap]TAK-boroAla) | 1.2 (≈ 1.74 µM) | 110 | 5.5 | 2 (≈ 2.9 µM) |
| C[C@H](NC(=O)[C@H](CCCCN)NC(=O)[C@H](C)NC(=O)[C@@H](NC(=O)[C@H](CCN)NC(=O)c1ccc(-c2ccc(C(C)(C)C)cc2)cc1)[C@@H](C)O)B1O[C@@H]2C[C@@H]3C[C@@H](C3(C)C)[C@]2(C)O1 [Compound 231] (X16-[Dab]TAK-{boroAla((+)-pinanediol)}) | 0.5 (≈ 0.581 µM) | 95 | 4.5 | 0.5 (≈ 0.581 µM) |
| CCCCc1ccc(-c2ccc(C(=O)NCCC(=O)N[C@@H](CCCCN)C(=O)N[C@H](C(=O)N[C@@H](C)C(=O)N[C@@H](CC(N)=O)C(=O)N[C@@H](C)B3OC4C[C@@H]5C[C@@H](C5(C)C)[C@]4(C)O3)C(C)(C)C)cc2)cc1 (stereo partly shown) [Compound 210] ({Biphenylcarbonyl(4'-Bu)-βAla}-K[Tle]AN-X1) | 0.71 (≈ 0.742 µM) | 16 | 56 | 4 (≈ 4.18 µM) |
| CCCCN1CCC(c2ccc(C(=O)N[C@@H](CCN)C(=O)N[C@H](C(=O)N[C@@H](C)C(=O)N[C@@H](CCCCN)C(=O)N[C@@H](C)B3O[C@@H]4C[C@@H]5C[C@@H](C5(C)C)[C@]4(C)O3)[C@@H](C)O)cc2)CC1 [Compound 244] (X13-[Dab]TAK-{boroAla((+)-pinanediol)}) | 45 (≈ 51.9 µM) | 1100 | 350 | 64 (≈ 73.8 µM) |
| CCCCc1ccc(-c2ccc(C(=O)N[C@@H](CCCCN)C(=O)N[C@H](C(=O)N[C@@H](C)C(=O)N[C@@H](CCCCN)C(=O)N[C@@H](C)B3OC4C[C@@H]5C[C@@H](C5(C)C)[C@]4(C)O3)[C@@H](C)O)cc2)cc1 (stereo partly shown) [Compound 132] ({Biphenylcarbonyl(4'-Bu)}-KTAK-X1) | 0.21 (≈ 0.236 µM) | 77 | 24 | 1 (≈ 1.13 µM) |
| C[C@H](NC(=O)[C@H](CC(N)=O)NC(=O)[C@H](C)NC(=O)[C@@H](NC(=O)[C@H](CCCCN)NC(=O)CCNC(=O)c1ccc(-c2ccc(Cl)cc2)cc1)[C@@H](C)O)B1OC2C[C@@H]3C[C@@H](C3(C)C)[C@]2(C)O1 (stereo partly shown) [Compound 201] ({Benzoyl(4-(4-Cl-Ph))-βAla}-KTAN-X1) | 4.6 (≈ 4.98 µM) | 1.9 | 8 | 64 (≈ 69.3 µM) |
